Our source for the IC50 values is patent US20240218022A1, “ANTI-VISTA MACROCYCLIC PEPTIDES AND COMPOSITIONS” (BRISTOL-MYERS SQUIBB COMPANY, priority 2022, published 2024).

For orientation: IC50 means the midpoint of a concentration-inhibition curve.

For this test, the target named is T1, mouse VISTA (mVISTA) (Mus musculus, UniProt Q9D659).
T1 construct: expressed in transfected cells; host or cells: Human embryonic kidney 293T cells
T1 sequence (Q9D659 33-308): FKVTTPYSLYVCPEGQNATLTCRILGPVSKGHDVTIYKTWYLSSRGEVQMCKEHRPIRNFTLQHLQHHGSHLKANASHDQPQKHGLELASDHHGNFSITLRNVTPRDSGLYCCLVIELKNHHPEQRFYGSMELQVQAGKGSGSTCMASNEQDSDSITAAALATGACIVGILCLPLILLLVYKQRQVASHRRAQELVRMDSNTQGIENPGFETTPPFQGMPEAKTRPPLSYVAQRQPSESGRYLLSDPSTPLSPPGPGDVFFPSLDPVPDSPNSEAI
Put plainly: Cell-Based Binding High-Content Assay For mVISTA (HC CBA mVISTA). Particulars: read-out: HC CBA mVISTA IC50. The essentials:
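Read-out: Alexa 647–streptavidin signal imaged on fixed, Hoechst-stained mVISTA-293T cells, with IC50 taken from a four-parameter logistic curve. Compounds competed with 2 nM biotinylated peptide for 30 min at room temperature, tested under both no-wash and wash (1 h compound, media exchange, 1 h) formats.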

Positions of bridges follow the written chain, without caps; N, C: chain ends. Non-standard residues stand in square brackets, D forms with d. Residues, ends and D or L forms follow the SMILES beside them. Ahp(2) = CCCCC[C@H](N)C(=O)O; NMeNle = CCCC[C@H](NC)C(=O)O; Tle = CC(C)(C)[C@H](N)C(=O)O; NHexGly = CCCCCCNCC(=O)O; Nle = CCCC[C@H](N)C(=O)O; Orn = NCCC[C@H](N)C(=O)O

For the compound `CCCCCCN1CC(=O)N[C@@H](Cc2ccc(O)cc2)C(=O)N[C@@H](CCCC)C(=O)N[C@@H](CC(=O)O)C(=O)N[C@@H](CCCN)C(=O)N(C)[C@@H](CCCC)C(=O)N[C@@H](CCCCC)C(=O)N2CCC[C@H]2C(=O)N[C@@H](C(C)(C)C)C(=O)N[C@@H](CC(=O)O)C(=O)N[C@H](C(=O)NCC(N)=O)CSCC(=O)N[C@@H](Cc2ccccc2)C(=O)N[C@@H](Cc2c[nH]c3ccccc23)C(=O)N[C@@H](CC(=O)O)C1=O` [Example 1393] ({CH2CO}-FWD[NHexGly]Y[Nle]D[Orn][NMeNle][Ahp(2)]P[Tle]DCG-NH2; thioether N-14), the IC50 worked out at 0.0172 µM. `CCCCCCN1CC(=O)N[C@@H](Cc2ccc(O)cc2)C(=O)N[C@@H](CCCC)C(=O)N[C@@H](CC(N)=O)C(=O)N[C@@H](CCCN)C(=O)N(C)[C@@H](CCCC)C(=O)N[C@@H](CCCCC)C(=O)N2CCC[C@H]2C(=O)N[C@@H](C(C)(C)C)C(=O)N[C@@H](CC(=O)O)C(=O)N[C@H](C(=O)NCC(N)=O)CSCC(=O)N[C@@H](Cc2ccccc2)C(=O)N[C@@H](Cc2c[nH]c3ccccc23)C(=O)N[C@@H](CC(=O)O)C1=O` [Example 1394] ({CH2CO}-FWD[NHexGly]Y[Nle]N[Orn][NMeNle][Ahp(2)]P[Tle]DCG-NH2; thioether N-14): the IC50 worked out at 0.0348 µM. For the compound `CCCCCCN1CC(=O)N[C@@H](Cc2ccc(O)cc2)C(=O)N[C@@H](CCCC)C(=O)N[C@@H](CC(=O)O)C(=O)N[C@@H](CCCNC(=N)N)C(=O)N(C)[C@@H](CCCC)C(=O)N[C@@H](CCCCC)C(=O)N2CCC[C@H]2C(=O)N[C@@H](C(C)(C)C)C(=O)N[C@@H](CO)C(=O)N[C@H](C(=O)NCC(N)=O)CSCC(=O)N[C@@H](Cc2ccccc2)C(=O)N[C@@H](Cc2c[nH]c3ccccc23)C(=O)N[C@@H](CC(=O)O)C1=O` [Example 1395] ({CH2CO}-FWD[NHexGly]Y[Nle]DR[NMeNle][Ahp(2)]P[Tle]SCG-NH2; thioether N-14), the IC50 is 0.0486 µM. In the case of `CCCCCCN1CC(=O)N[C@@H](Cc2ccc(O)cc2)C(=O)N[C@@H](CCCC)C(=O)N[C@@H](CC(N)=O)C(=O)N[C@@H](CCCNC(=N)N)C(=O)N(C)[C@@H](CCCC)C(=O)N[C@@H](CCCCC)C(=O)N2CCC[C@H]2C(=O)N[C@@H](C(C)(C)C)C(=O)N[C@@H](CC(=O)O)C(=O)N[C@H](C(=O)NCC(N)=O)CSCC(=O)N[C@@H](Cc2ccccc2)C(=O)N[C@@H](Cc2c[nH]c3ccccc23)C(=O)N[C@@H](CC(=O)O)C1=O` [Example 1396] ({CH2CO}-FWD[NHexGly]Y[Nle]NR[NMeNle][Ahp(2)]P[Tle]DCG-NH2; thioether N-14), the IC50 was 0.0268 µM. For the compound `CCCCCCN1CC(=O)N[C@@H](Cc2ccc(O)cc2)C(=O)N[C@@H](CCCC)C(=O)N[C@@H](CC(=O)O)C(=O)N[C@@H](CCCN)C(=O)N(C)[C@@H](CCCC)C(=O)N[C@@H](CCCCC)C(=O)N2CCC[C@H]2C(=O)N[C@@H](C(C)(C)C)C(=O)N[C@@H](CC(=O)O)C(=O)N[C@H](C(=O)N[C@@H](CC(N)=O)C(=O)O)CSCC(=O)N[C@@H](Cc2ccccc2)C(=O)N[C@@H](Cc2c[nH]c3ccccc23)C(=O)N[C@@H](CC(=O)O)C1=O` [Example 1397] ({CH2CO}-FWD[NHexGly]Y[Nle]D[Orn][NMeNle][Ahp(2)]P[Tle]DCN-OH; thioether N-14), the IC50 came to 0.036 µM. The value for `CCCCCCN1CC(=O)N[C@@H](Cc2ccc(O)cc2)C(=O)N[C@@H](CCCC)C(=O)N[C@@H](CC(N)=O)C(=O)N[C@@H](CCCNC(=N)N)C(=O)N(C)[C@@H](CCCC)C(=O)N[C@@H](CCCCC)C(=O)N2CCC[C@H]2C(=O)N[C@@H](C(C)(C)C)C(=O)N[C@@H](CC(=O)O)C(=O)N[C@H](C(=O)N[C@@H](CC(N)=O)C(=O)O)CSCC(=O)N[C@@H](Cc2ccccc2)C(=O)N[C@@H](Cc2c[nH]c3ccccc23)C(=O)N[C@@H](CC(=O)O)C1=O` [Example 1398] ({CH2CO}-FWD[NHexGly]Y[Nle]NR[NMeNle][Ahp(2)]P[Tle]DCN-OH; thioether N-14) was 0.0439 µM; that for `CCCCCCN1CC(=O)N[C@@H](Cc2ccc(O)cc2)C(=O)N[C@@H](CCCC)C(=O)N[C@@H](CC(=O)O)C(=O)N[C@@H](CCCNC(=N)N)C(=O)N(C)[C@@H](CCCC)C(=O)N[C@@H](CCCCC)C(=O)N2CCC[C@H]2C(=O)N[C@@H](C(C)(C)C)C(=O)N[C@@H](CO)C(=O)N[C@H](C(=O)N[C@@H](CC(N)=O)C(=O)O)CSCC(=O)N[C@@H](Cc2ccccc2)C(=O)N[C@@H](Cc2c[nH]c3ccccc23)C(=O)N[C@@H](CC(=O)O)C1=O` [Example 1399] ({CH2CO}-FWD[NHexGly]Y[Nle]DR[NMeNle][Ahp(2)]P[Tle]SCN-OH; thioether N-14) was 0.0273 µM; that for `CCCCCCN1CC(=O)N[C@@H](Cc2ccc(O)cc2)C(=O)N[C@@H](CCCC)C(=O)N[C@@H](CC(N)=O)C(=O)N[C@@H](CCCN)C(=O)N(C)[C@@H](CCCC)C(=O)N[C@@H](CCCCC)C(=O)N2CCC[C@H]2C(=O)N[C@@H](C(C)(C)C)C(=O)N[C@@H](CO)C(=O)N[C@H](C(=O)N[C@@H](CC(N)=O)C(=O)O)CSCC(=O)N[C@@H](Cc2ccccc2)C(=O)N[C@@H](Cc2c[nH]c3ccccc23)C(=O)N[C@@H](CC(=O)O)C1=O` [Example 1400] ({CH2CO}-FWD[NHexGly]Y[Nle]N[Orn][NMeNle][Ahp(2)]P[Tle]SCN-OH; thioether N-14) was 0.0141 µM.

Consider `CCCCCCN1CC(=O)N[C@@H](Cc2ccc(O)cc2)C(=O)N[C@@H](CCCC)C(=O)N[C@@H](CC(=O)O)C(=O)N[C@@H](CCCN)C(=O)N(C)[C@@H](CCCC)C(=O)N[C@@H](CCCCC)C(=O)N2CCC[C@H]2C(=O)N[C@@H](C(C)(C)C)C(=O)N[C@@H](CO)C(=O)N[C@H](C(=O)N[C@@H](CC(N)=O)C(=O)O)CSCC(=O)N[C@@H](Cc2ccccc2)C(=O)N[C@@H](Cc2c[nH]c3ccccc23)C(=O)N[C@@H](CC(=O)O)C1=O` [Example 1401] ({CH2CO}-FWD[NHexGly]Y[Nle]D[Orn][NMeNle][Ahp(2)]P[Tle]SCN-OH; thioether N-14), for which the IC50 was 0.0202 µM. Turning to `CCCCCCN1CC(=O)N[C@@H](Cc2ccc(O)cc2)C(=O)N[C@@H](CCCC)C(=O)N[C@@H](CC(N)=O)C(=O)N[C@@H](CCCNC(=N)N)C(=O)N(C)[C@@H](CCCC)C(=O)N[C@@H](CCCCC)C(=O)N2CCC[C@H]2C(=O)N[C@@H](C(C)(C)C)C(=O)N[C@@H](CO)C(=O)N[C@H](C(=O)N[C@@H](CC(N)=O)C(=O)O)CSCC(=O)N[C@@H](Cc2ccccc2)C(=O)N[C@@H](Cc2c[nH]c3ccccc23)C(=O)N[C@@H](CC(=O)O)C1=O` [Example 1402] ({CH2CO}-FWD[NHexGly]Y[Nle]NR[NMeNle][Ahp(2)]P[Tle]SCN-OH; thioether N-14), the IC50 is 0.0338 µM. The same measure for `CCCCCCN1CC(=O)N[C@@H](Cc2ccc(O)cc2)C(=O)N[C@@H](CCCC)C(=O)N[C@@H](CC(=O)O)C(=O)N[C@@H](CCCNC(=N)N)C(=O)N(C)[C@@H](CCCC)C(=O)N[C@@H](CCCCC)C(=O)N2CCC[C@H]2C(=O)N[C@@H](C(C)(C)C)C(=O)N[C@@H](CC(=O)O)C(=O)N[C@H](C(=O)N[C@@H](CC(N)=O)C(=O)O)CSCC(=O)N[C@@H](Cc2ccccc2)C(=O)N[C@@H](Cc2c[nH]c3ccccc23)C(=O)N[C@@H](CC(=O)O)C1=O` [Example 1403] ({CH2CO}-FWD[NHexGly]Y[Nle]DR[NMeNle][Ahp(2)]P[Tle]DCN-OH; thioether N-14): 0.032 µM. `CCCCCCN1CC(=O)N[C@@H](Cc2ccc(O)cc2)C(=O)N[C@@H](CCCC)C(=O)N[C@@H](CC(N)=O)C(=O)N[C@@H](CCCN)C(=O)N(C)[C@@H](CCCC)C(=O)N[C@@H](CCCCC)C(=O)N2CCC[C@H]2C(=O)N[C@@H](C(C)(C)C)C(=O)N[C@@H](CC(=O)O)C(=O)N[C@H](C(=O)N[C@@H](CC(N)=O)C(=O)O)CSCC(=O)N[C@@H](Cc2ccccc2)C(=O)N[C@@H](Cc2c[nH]c3ccccc23)C(=O)N[C@@H](CC(=O)O)C1=O` [Example 1404] ({CH2CO}-FWD[NHexGly]Y[Nle]N[Orn][NMeNle][Ahp(2)]P[Tle]DCN-OH; thioether N-14): the IC50 is 0.016 µM. On to `CCCCCCN1CC(=O)N[C@@H](Cc2ccc(O)cc2)C(=O)N[C@@H](CCCCC)C(=O)N[C@@H](CC(N)=O)C(=O)N[C@@H](CCCNC(=N)N)C(=O)N(C)[C@@H](CCCC)C(=O)N[C@@H](CCCCC)C(=O)N2CCC[C@H]2C(=O)N[C@@H](C(C)C)C(=O)N[C@@H](CC(=O)O)C(=O)N[C@H](C(=O)N[C@@H](CO)C(N)=O)CSCC(=O)N[C@@H](Cc2ccccc2)C(=O)N[C@@H](Cc2c[nH]c3ccccc23)C(=O)N[C@@H](CC(=O)O)C1=O` [Example 1405] ({CH2CO}-FWD[NHexGly]Y[Ahp(2)]NR[NMeNle][Ahp(2)]PVDCS-NH2; thioether N-14), for which the IC50 worked out at 0.005 µM. Take `CCCCCCN1CC(=O)N[C@@H](Cc2ccc(O)cc2)C(=O)N[C@@H](CCCC)C(=O)N[C@@H](CC(N)=O)C(=O)N[C@@H](CCCNC(=N)N)C(=O)N(C)[C@@H](CCCC)C(=O)N[C@@H](CCCCC)C(=O)N2CCC[C@H]2C(=O)N[C@@H](C(C)C)C(=O)N[C@@H](CC(=O)O)C(=O)N[C@H](C(=O)N[C@@H](CO)C(=O)O)CSCC(=O)N[C@@H](Cc2ccccc2)C(=O)N[C@@H](Cc2c[nH]c3ccccc23)C(=O)N[C@@H](CC(=O)O)C1=O` [Example 1406] ({CH2CO}-FWD[NHexGly]Y[Nle]NR[NMeNle][Ahp(2)]PVDCS-OH; thioether N-14): the IC50 worked out at 0.0064 µM. For the compound `CCCCCCN1CC(=O)N[C@@H](Cc2ccc(O)cc2)C(=O)N[C@@H](CCCC)C(=O)N[C@@H](CC(=O)O)C(=O)N[C@@H](CCCNC(=N)N)C(=O)N(C)[C@@H](CCCC)C(=O)N[C@@H](CCCCC)C(=O)N2CCC[C@H]2C(=O)N[C@@H](C(C)C)C(=O)N[C@@H](CC(=O)O)C(=O)N[C@H](C(=O)N[C@@H](CO)C(N)=O)CSCC(=O)N[C@@H](Cc2ccccc2)C(=O)N[C@@H](Cc2c[nH]c3ccccc23)C(=O)N[C@@H](CC(=O)O)C1=O` [Example 1407] ({CH2CO}-FWD[NHexGly]Y[Nle]DR[NMeNle][Ahp(2)]PVDCS-NH2; thioether N-14), the IC50 was found to be 0.0345 µM.
